One block for each compound: values may come before it. Activity calls are given as the source filed them.
Experiments:
Caspase-3 = biological target: T1, Caspase-3 (Homo sapiens, UniProt P42574); assay type: functional;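 further: Dose-response selectivity test against caspase-3 for candidate inhibitors of sentrin-specific proteases (SENPs)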
T1 sequence (P42574 whole entry): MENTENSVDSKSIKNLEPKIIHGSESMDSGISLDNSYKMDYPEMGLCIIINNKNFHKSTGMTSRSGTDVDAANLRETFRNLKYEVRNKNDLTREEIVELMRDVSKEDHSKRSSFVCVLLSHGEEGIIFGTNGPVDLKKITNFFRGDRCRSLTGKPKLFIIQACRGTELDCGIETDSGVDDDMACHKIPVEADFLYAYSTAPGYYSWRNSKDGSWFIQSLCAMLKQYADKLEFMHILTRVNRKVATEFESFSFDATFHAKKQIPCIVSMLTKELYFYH

[1] = biological target: T2, Sentrin-specific protease 6 (Homo sapiens, UniProt Q9GZR1); assay type: functional;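 further: Luminescence-based dose-response confirmatory assay of SENP6 inhibition, following up an ultra-high-throughput screen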
T2 sequence (Q9GZR1 whole entry): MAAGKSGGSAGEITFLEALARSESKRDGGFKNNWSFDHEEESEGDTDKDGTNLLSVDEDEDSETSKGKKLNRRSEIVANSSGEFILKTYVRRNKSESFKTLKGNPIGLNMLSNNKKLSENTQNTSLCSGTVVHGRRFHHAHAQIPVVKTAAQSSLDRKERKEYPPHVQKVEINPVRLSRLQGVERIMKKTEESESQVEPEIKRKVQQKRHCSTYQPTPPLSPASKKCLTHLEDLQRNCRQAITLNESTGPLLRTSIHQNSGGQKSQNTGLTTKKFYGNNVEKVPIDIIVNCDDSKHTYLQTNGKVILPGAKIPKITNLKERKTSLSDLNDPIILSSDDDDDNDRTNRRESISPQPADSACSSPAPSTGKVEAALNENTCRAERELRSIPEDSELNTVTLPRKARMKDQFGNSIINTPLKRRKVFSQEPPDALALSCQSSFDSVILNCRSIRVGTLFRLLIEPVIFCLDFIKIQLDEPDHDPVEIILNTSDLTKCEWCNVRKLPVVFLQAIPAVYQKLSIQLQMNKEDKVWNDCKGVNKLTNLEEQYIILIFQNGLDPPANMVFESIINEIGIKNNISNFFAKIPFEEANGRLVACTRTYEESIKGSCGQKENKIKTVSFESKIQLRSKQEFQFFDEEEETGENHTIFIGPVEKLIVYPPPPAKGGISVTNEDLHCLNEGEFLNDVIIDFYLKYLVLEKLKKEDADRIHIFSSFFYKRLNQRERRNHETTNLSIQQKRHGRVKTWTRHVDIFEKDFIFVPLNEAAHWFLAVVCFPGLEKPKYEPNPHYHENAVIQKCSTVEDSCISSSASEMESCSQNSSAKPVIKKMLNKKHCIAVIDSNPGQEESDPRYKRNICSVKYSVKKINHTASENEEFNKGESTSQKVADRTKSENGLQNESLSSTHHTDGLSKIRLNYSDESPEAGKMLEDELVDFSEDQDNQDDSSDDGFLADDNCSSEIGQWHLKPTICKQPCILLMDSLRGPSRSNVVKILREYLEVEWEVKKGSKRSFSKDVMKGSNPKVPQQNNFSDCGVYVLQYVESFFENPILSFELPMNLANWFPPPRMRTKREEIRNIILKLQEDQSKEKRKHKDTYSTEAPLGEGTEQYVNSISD

[2] = biological target: T3, Sentrin-specific protease 8 (Homo sapiens, UniProt Q96LD8); assay type: functional;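 further: luminescence read-out of SENP8 inhibition, dose-response confirmation following an ultra-high-throughput screen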
T3 sequence (Q96LD8 whole entry): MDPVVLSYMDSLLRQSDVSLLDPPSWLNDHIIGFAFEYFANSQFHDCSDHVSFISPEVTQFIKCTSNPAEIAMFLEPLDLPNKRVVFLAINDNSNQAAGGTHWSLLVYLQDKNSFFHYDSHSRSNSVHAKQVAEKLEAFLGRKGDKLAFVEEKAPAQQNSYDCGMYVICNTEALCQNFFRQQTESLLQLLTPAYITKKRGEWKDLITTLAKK

[3] = biological target: T4, Mitochondrial peptide methionine sulfoxide reductase (Bos taurus, UniProt P54149); experiment: Absorbance-based biochemical high throughput dose response assay for activators of Methionine sulfoxide reductase A (MsrA).; assay type: functional
T4 sequence (P54149 whole entry): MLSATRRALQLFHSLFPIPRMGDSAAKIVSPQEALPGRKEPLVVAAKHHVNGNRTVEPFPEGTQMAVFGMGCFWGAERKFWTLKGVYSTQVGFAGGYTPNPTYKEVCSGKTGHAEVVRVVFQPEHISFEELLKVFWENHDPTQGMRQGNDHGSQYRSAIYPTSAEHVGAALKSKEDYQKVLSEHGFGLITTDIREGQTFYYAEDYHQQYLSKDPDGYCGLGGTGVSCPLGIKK

[4] = biological target: T5, Sentrin-specific protease 7 (Homo sapiens, UniProt Q9BQF6); assay type: functional;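 further: Luminescence-based dose-response confirmation of ultra-high-throughput screening hits, measuring inhibition of SENP7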
T5 sequence (Q9BQF6 whole entry): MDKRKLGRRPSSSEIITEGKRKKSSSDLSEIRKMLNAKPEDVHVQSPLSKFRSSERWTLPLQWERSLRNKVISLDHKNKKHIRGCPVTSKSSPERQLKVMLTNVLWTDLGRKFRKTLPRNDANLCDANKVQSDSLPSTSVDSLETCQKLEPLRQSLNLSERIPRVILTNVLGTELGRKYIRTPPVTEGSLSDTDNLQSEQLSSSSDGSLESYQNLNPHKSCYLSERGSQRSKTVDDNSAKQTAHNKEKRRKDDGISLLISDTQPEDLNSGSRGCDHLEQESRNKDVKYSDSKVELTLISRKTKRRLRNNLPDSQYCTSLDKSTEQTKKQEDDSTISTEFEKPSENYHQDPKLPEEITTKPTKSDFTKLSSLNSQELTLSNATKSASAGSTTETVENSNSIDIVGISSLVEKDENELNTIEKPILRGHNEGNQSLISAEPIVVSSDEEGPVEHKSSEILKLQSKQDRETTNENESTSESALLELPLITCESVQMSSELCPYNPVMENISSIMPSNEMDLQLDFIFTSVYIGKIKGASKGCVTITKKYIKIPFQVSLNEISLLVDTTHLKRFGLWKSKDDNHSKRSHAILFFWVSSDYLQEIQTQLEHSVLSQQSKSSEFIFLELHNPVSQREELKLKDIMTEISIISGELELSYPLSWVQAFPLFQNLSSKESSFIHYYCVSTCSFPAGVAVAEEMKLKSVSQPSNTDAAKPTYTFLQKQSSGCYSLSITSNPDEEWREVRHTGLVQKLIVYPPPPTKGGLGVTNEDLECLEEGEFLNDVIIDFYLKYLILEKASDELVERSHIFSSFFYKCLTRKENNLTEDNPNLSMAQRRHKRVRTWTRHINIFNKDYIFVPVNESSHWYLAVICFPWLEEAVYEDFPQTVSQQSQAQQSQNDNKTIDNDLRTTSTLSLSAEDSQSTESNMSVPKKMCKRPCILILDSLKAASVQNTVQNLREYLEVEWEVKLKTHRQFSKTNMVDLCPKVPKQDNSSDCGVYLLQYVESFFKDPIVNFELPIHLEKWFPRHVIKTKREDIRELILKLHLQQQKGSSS

[5] = biological target: T6, Ubiquitin-conjugating enzyme E2 N (Homo sapiens, UniProt P61088); assay type: functional;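 further: Dose-response confirmation in a TR-FRET assay detecting UBC13-driven polyubiquitin chain formation, inhibition measured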
T6 sequence (P61088 whole entry): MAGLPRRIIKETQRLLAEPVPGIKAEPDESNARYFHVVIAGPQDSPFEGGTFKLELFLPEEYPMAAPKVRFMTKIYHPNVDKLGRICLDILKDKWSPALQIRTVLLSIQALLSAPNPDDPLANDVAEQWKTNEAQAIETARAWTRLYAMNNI

[6] = biological target: T7, Low molecular weight phosphotyrosine protein phosphatase (Homo sapiens, UniProt P24666); assay type: functional; conditions: read-out: IC50_Mean;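 further: Dose-response confirmation assay measuring inhibition of LMPTP enzyme activity by fluorescence intensity read-out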
T7 sequence (P24666 whole entry): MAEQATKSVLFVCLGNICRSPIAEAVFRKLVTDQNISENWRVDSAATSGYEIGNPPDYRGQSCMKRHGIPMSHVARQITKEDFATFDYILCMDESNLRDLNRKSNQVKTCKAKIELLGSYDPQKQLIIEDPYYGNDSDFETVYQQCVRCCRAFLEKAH

[7] = biological target: T8, DNA repair protein RAD52 homolog (Homo sapiens, UniProt P43351); assay type: functional, biochemical
T8 sequence (P43351 whole entry): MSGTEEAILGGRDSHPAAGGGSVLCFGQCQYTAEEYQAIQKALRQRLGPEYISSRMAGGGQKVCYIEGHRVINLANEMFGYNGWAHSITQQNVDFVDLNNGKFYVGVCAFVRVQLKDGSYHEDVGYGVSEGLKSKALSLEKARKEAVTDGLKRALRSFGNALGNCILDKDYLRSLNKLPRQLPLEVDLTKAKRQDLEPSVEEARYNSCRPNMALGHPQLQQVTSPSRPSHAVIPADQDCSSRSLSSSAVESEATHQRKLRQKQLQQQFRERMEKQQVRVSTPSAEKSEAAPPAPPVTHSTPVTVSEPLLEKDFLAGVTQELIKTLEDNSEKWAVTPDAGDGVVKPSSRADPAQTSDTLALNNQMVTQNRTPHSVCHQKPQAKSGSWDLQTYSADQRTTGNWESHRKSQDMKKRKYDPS

Albumin = Albumin (Bos taurus, UniProt P02769); experiment: Counterscreen for inhibitors of T-cell receptor (TCR)-CD3 interaction: Fluorescence-based biochemical high throughput dose response assay to identify inhibitors of T-cell receptor (TCR)-CD3 interaction using a TAMRA-labeled BSA probe.; assay type: functional
[8] = biological target: T9, Corticotropin-releasing factor receptor 2/Corticotropin-releasing factor-binding protein (Homo sapiens, UniProt P24387+Q13324); experiment: Dose Response confirmation of uHTS hits for small molecule antagonists of the CRF-binding protein and CRF-R2 receptor complex.; assay type: functional; conditions: read-out: IC50_Mean
T9 sequence (Q13324 whole entry): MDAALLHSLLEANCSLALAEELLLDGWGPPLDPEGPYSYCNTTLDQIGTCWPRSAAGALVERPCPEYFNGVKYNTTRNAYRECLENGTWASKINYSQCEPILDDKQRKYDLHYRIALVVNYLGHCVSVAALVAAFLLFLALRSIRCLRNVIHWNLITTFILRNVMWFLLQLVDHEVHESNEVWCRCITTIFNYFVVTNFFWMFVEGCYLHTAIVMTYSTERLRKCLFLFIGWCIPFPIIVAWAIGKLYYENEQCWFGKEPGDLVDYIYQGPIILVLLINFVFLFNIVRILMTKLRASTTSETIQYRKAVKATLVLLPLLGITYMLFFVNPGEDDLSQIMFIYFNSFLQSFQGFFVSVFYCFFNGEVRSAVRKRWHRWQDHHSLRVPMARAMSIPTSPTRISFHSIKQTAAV
T9 sequence (P24387 whole entry): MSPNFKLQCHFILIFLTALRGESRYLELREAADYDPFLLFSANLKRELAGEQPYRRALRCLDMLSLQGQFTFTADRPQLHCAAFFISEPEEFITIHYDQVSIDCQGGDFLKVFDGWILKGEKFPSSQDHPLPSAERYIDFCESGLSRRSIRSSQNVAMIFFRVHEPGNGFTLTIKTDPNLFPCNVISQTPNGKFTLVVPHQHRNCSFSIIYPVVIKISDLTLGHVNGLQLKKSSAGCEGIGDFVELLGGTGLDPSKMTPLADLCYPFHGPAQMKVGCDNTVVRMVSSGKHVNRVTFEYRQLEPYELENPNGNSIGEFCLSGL

[9] = blockers of CRF-binding protein–CRF-R2 complex – cell-based, uHTS hits, 384-well, dose response (AID 651639); assay type: functional, Homo sapiens; conditions: read-out: IC50_Mean
[10] = biological target: T9, Corticotropin-releasing factor receptor 2/Corticotropin-releasing factor-binding protein; experiment: activators of CRF receptor 2 with binding protein – uHTS hits, confirmation (AID 602473); assay type: functional; conditions: read-out: EC50_Mean
[11] = biological target: Tyrosine-protein phosphatase non-receptor type 11 (Homo sapiens, UniProt Q06124); experiment: PTPN11 enzyme inhibitors – biochemical, selectivity assay for STEP inhibitor project, dose response (AID 602367); assay type: functional; conditions: read-out: IC50_Mean
[12] = biological target: Dual specificity protein phosphatase 3 (Homo sapiens, UniProt P51452); experiment: VHR phosphatase inhibition, dose response, selectivity assay for STEP inhibitor project, biochemical (AID 602374); assay type: functional; conditions: read-out: IC50_Mean
[13] = biological target: Tyrosine-protein phosphatase non-receptor type 5 (Homo sapiens, UniProt P54829); experiment: PTPN5 enzyme inhibition – biochemical, fluorescence intensity, uHTS hits, confirmation (AID 602372); assay type: functional; conditions: read-out: IC50_Mean
[14] = biological target: DNA repair and recombination protein RAD54-like (Homo sapiens, UniProt Q92698); experiment: RAD54 Holliday junction migration blockers – biochemical, fluorescence, cherry-picked samples, dose series, confirmation (AID 651657); assay type: functional
[15] = biological target: DNA (cytosine-5)-methyltransferase 1 (Homo sapiens, UniProt P26358); experiment: inhibition of DNA methylation by DNMT1 – biochemical, fluorescent molecular beacon, confirmation (AID 602386); assay type: functional
Chain of DNA (cytosine-5)-methyltransferase 1 (P26358 whole entry): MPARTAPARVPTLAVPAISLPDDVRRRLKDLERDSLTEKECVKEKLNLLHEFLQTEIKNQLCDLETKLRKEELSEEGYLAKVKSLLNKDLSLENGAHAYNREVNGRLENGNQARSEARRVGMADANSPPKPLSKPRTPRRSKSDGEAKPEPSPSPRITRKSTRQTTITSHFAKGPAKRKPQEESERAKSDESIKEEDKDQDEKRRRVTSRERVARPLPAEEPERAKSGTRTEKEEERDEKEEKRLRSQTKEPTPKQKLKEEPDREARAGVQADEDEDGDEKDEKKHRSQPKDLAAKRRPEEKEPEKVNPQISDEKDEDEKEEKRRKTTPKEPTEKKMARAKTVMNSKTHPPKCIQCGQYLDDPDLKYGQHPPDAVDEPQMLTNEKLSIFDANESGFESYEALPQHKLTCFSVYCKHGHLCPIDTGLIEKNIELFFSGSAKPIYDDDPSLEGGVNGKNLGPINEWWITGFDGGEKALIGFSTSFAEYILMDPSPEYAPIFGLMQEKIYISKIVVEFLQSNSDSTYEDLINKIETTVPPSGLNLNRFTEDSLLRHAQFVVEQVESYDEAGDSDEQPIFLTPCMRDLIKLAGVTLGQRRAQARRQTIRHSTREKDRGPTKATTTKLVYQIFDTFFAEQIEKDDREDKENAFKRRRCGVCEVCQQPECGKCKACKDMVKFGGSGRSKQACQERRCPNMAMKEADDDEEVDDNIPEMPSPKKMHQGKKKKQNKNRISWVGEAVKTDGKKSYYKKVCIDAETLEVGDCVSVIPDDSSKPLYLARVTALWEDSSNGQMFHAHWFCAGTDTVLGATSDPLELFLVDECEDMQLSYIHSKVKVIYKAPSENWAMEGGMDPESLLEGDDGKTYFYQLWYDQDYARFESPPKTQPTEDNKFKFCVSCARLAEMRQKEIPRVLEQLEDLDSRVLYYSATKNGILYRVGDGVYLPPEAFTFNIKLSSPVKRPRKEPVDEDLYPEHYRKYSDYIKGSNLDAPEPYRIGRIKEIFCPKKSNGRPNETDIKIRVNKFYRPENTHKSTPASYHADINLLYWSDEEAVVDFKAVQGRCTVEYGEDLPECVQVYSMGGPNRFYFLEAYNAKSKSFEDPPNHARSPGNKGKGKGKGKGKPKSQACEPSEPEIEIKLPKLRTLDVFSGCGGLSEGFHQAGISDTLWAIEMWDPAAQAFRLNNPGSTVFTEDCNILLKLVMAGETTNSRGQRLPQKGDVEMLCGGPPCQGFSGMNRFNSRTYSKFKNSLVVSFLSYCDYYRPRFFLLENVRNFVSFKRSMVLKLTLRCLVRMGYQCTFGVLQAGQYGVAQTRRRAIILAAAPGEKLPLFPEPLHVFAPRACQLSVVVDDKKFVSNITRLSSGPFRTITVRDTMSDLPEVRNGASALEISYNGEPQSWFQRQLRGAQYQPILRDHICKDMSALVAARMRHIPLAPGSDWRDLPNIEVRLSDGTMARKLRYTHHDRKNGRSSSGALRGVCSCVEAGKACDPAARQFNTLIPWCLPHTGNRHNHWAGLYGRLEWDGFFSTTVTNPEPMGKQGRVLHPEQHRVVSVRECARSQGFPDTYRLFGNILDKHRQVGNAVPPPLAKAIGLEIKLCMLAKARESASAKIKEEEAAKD

Chain of Dual specificity protein phosphatase 3 (P51452 whole entry): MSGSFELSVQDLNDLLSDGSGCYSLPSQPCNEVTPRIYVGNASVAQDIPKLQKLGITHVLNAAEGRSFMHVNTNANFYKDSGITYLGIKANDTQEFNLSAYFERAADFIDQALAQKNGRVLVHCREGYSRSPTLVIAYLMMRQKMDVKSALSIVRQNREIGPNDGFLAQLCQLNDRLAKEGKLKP
Chain of Albumin (P02769 whole entry): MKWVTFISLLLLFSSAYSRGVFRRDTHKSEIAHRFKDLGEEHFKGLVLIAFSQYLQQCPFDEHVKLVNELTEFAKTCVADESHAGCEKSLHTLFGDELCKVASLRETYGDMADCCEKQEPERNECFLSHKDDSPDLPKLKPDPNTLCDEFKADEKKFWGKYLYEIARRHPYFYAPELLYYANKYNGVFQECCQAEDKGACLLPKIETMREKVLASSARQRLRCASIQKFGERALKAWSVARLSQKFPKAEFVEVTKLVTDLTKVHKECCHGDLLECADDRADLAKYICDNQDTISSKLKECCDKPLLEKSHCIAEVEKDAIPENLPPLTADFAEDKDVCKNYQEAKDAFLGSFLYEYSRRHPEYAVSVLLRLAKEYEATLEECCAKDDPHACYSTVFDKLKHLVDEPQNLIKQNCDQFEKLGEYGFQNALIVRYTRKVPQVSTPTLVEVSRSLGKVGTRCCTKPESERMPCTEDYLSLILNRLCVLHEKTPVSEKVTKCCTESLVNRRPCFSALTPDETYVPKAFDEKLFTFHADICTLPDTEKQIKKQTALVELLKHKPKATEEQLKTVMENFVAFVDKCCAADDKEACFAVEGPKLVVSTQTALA
Chain of DNA repair and recombination protein RAD54-like (Q92698 whole entry): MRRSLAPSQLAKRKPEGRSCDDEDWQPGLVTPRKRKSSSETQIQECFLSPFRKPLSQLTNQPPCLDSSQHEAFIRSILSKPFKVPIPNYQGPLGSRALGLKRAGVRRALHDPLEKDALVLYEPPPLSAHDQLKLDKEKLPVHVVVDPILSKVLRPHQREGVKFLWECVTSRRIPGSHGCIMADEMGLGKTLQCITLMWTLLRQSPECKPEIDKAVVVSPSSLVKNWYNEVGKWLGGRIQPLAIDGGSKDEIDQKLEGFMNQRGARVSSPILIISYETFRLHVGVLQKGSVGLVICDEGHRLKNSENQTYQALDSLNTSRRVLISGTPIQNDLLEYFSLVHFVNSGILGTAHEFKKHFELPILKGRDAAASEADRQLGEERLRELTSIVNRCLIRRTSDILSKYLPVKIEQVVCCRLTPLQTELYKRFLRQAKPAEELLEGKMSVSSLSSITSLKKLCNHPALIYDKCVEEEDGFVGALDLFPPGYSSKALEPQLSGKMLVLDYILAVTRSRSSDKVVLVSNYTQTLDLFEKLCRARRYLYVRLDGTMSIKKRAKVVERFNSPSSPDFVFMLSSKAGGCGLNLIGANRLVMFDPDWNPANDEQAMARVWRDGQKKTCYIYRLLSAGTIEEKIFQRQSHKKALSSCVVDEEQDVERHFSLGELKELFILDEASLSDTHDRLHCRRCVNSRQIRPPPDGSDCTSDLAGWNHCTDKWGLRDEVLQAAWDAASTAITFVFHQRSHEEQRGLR
Chain of Tyrosine-protein phosphatase non-receptor type 5 (P54829 whole entry): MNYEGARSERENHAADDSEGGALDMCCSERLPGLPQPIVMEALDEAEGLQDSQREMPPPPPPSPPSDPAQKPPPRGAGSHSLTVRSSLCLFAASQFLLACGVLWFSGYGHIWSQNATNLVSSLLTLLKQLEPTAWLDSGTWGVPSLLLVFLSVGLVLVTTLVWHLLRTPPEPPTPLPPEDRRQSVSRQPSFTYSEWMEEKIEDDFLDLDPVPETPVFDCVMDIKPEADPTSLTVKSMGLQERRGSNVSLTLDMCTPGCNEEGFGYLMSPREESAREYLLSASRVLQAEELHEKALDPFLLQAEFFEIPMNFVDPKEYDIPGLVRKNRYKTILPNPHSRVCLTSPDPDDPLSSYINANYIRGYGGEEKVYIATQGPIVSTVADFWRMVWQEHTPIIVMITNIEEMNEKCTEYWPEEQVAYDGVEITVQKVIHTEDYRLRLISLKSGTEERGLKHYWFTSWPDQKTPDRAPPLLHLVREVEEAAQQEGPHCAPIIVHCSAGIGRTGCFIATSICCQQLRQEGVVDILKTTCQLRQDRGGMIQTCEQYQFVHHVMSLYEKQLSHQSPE

IC50 (Caspase-3): 17.1 µM (active) | IC50 [1]: 6.27 µM (active) | EC50 [3]: 40 µM (inactive) | IC50 [4]: 9.28 µM (active)
SMILES: COc1ccc(S(=O)(=O)N2CCOCC2)cc1NC(=O)COC(=O)c1ccc([N+](=O)[O-])s1
IC50 [2]: 6.06 µM (active)

IC50 [5]: > 20 µM (inactive) | IC50 [6]: 16 µM (active) | AC50 [7]: 7.05 µM (active) | IC50 (Albumin): > 94.1 µM (inactive)
SMILES: Cc1ccc(-c2nc3cc(C(=O)NCCCn4ccnc4)ccc3c(O)c2O)cc1

IC50 [8]: < 0.368 µM (active) | IC50 [9]: 11.1 µM (active) | EC50 [10]: > 53 µM (inactive)
SMILES: O=C(COC(=O)C1(c2ccc(F)cc2)CCCC1)NCc1ccc2c(c1)OCO2

IC50 [11]: 2.07 µM (active) | IC50 [12]: 1.03 µM (active) | IC50 [13]: 20.8 µM (inactive)
SMILES: COc1cc(Cl)ccc1N=C(S)N(CCCN1CCOCC1)Cc1cn(C)c2ccccc12

AC50 [14]: 70.3 µM (active)
SMILES: O=C(Nc1ccccc1)c1cc(S(=O)(=O)N2CCOCC2)cs1

SMILES: O=C1Nc2c(Cl)cc(Cl)cc2C1=O
IC50 [15]: 11.8 µM (active) | EC50 [3]: > 104 µM (inactive)

— ChEMBL document CHEMBL1201862, “PubChem BioAssay data set” (2004)
